Like-named read-outs stand apart in the source and are kept apart here. Blank lines part the entries; values can stand above or below the molecule they belong to.
Key:
brain ischemia = test: Anoxic Nitrogen Test in Rats; type: in vivo, male Sprague-Dawley rats; details: Rattus norvegicus, sc, subcutaneously, 2 hr survival, read-out: Nitrogen Anoxia % Survival
Text: Most specifically, administration of the compounds of Formula I results in protection against hypoxia-induced death in an anoxic nitrogen test in rats (Example 66). The test identifies the neuro-protective effects of substances against lethal brain damages produced by a lack of oxygen consumption (anoxia). In this test procedure, control animals exposed for one minute to a pure nitrogen atmosphere will expire because of respiratory failure caused by irreversible damage to the brain respiratory center.
Anoxic Nitrogen Test in Rats
The animals utilized are male Sprague-Dawley rats (200-400 grams) housed four animals per cage in a normal controlled environment with unlimited access to food and water. Usually there are 8 animals per dose, however, […] can be employed to obtain an initial impression of a compound's activity. Animals are parenterally or orally administered the vehicle or test compound 30 minutes before the anoxic insult. The anoxic episode consists of placing up to 8 animals in the sealed test chamber (10" l×10" w×6" h) continuously flushed with pure N2 (4.5 grade) at a flow rate of 5 SCFM for 1 min. Animals are then promptly removed to normal atmosphere and observed for the 2 hour period. Typically, animals become disoriented within 15 sec after which they remain motionless.
Even though the heart is still beating after the N2 exposure, all control animals fail to gasp when removed from the chamber and usually expire within 3 minutes. Drug treated animals, however, still gasp or start gasping after being removed, which is a good indication that the animals will survive the N2 exposure [see Wauquire, A., et al: Arch. Int. Pharmacodyn., 249, 330-334 (1981); Wauquier, A., et al: Drug Dev. Res., 8, 373-380 (1986)]. Results are recorded as:
(Number of animals surviving (2 hr))/(Number of animals tested)×100%
The anoxic nitrogen test is an in vivo model of brain ischemia in rats [see: Wauquire, A., et al: Arch. Int. Pharmacodyn., 249, 330-334 (1981); Wauquier, A., et al: Drug Dev. Res., 8, 373-380 (1986)]. Compounds of the present invention are active in this in vivo model of brain ischemia when given subcutaneously in the doses indicated in Table 2, thus providing additional evidence that the present compounds will be useful in the treatment of brain ischemia.

Dopamine D2 = target: T1, Dopamine D2 (Rattus norvegicus, UniProt P61169); test: Dopamine D2 Binding Assay ([3H]Spiperone, corpus striatum membranes); design: species or system male Sprague-Dawley rats; details: [3H]Spiperone 0.1 nM, 37° C., 15 min
T1 construct: The corpus striatum was crudely dissected and frozen on dry ice; from tissue; host or cells: rat corpus striatum membranes (male Sprague-Dawley rats, Charles River)
T1 sequence (P61169 whole entry): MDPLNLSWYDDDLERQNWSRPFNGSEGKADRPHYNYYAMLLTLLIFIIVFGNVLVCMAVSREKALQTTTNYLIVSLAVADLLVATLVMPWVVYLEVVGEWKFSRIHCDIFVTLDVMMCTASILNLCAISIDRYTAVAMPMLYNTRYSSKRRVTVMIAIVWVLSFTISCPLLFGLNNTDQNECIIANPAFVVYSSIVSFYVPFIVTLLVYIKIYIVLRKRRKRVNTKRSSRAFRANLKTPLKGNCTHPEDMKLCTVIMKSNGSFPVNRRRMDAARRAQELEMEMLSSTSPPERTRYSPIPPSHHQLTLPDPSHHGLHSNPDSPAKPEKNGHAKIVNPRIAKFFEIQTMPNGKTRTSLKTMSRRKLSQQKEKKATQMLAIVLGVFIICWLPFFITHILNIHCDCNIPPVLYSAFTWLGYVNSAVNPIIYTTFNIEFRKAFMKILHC
Description: Activity at D2 sites is measured using the screening process set out in Example 67.
Dopamine D2 Binding Assay
Dopamine D2 affinity was determined according to the procedures of Burt, Creese and Snyder [Molecular Pharmacology 12,800 (1976); Science 196, 326 (1977); Science 192, 481 (1976)]. Briefly, male Sprague-Dawley rats (Charles River) were decapitated, brains rapidly removed and chilled in ice-cold 50 mM Hepes/KOH buffer (pH 7.4, 20° C.). The corpus striatum was crudely dissected and frozen on dry ice. Tissue was pooled and stored at -80° C. until use. On the day of assay, tissue was thawed in 20 ml ice-cold Hepes/KOH buffer, and homogenized with a polytron for 15 sec at 18,000 rpm. The homogenate was centrifuged (39,000×g, 10 min, at 4° C.). The supernatant was discarded and the pellet rehomogenized in ice-cold Hepes/KOH buffer and recentrifuged as described previously. The supernatant was again discarded and the pellet resuspended (1:100) in ice-cold Hepes/KOH buffer (pH 7.4, 20° C., containing 120 mM NaCl, 5 mM KCl, 1 mM MgCl2, 0.1% (w/v) ascorbic acid, and 10 μM pargylline, and stored on ice until assay. The binding assay (1 ml total volume) was performed in duplicate and initiated by the addition of 800 μl membrane homogenate to tubes containing 100 μl [^3 H]Spiperone (0.1 nM final concentration), and 100 μl competitor, buffer, or butaclamol, which was used to define the non-specific binding. The assay was incubated at 37° C. for 15 min, afterwhich the assay was terminated by rapid filtration.
In vitro IC50 test values for binding to the D2 receptor were determined for representative compounds of Formula I by the method of Burt, Creese, and Snyder, Molecular Pharmacology 12, 800 (1976); Creese, Burt, and Snyder, Science 196, 326 (1977); and Creese, Burt and Snyder, Science 192, 481 (1976). Test IC50 values greater than 1,000 nM are considered to reflect inactivity at the D2 receptor, indicating the risk of extrapyramidal side effects is small.

sigma receptor = target: T2, sigma receptor (Cavia porcellus, UniProt Q60492); test: Sigma binding (method of Tam and Cook)
T2 construct: from tissue
T2 sequence (Q60492 whole entry): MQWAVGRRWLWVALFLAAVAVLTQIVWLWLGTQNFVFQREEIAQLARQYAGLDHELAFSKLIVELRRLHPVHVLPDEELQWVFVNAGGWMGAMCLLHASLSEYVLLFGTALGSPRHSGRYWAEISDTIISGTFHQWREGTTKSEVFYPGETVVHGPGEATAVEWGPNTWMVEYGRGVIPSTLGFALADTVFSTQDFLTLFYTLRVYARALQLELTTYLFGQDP
Description: In vitro IC50 test values for binding to the sigma receptor were determined for representative compounds of Formula I by the method of Tam and Cook [see: Tam, S. W., and Cook, L: Proc. Natl. Acad. Sci. USA 81, 5618-5621 (1984)] with only minor modifications. Test IC50 values lower than 100 nM are considered to reflect activity at the sigma receptor.

SMILES: Fc1ccc(C2=CCC(N3CCN(Cc4ccccc4)CC3)CC2)cc1 (stereo not drawn) [Example 35, 1-[4-(4-Fluorophenyl)-3-cyclohexen-1-yl]-4-(phenylmethyl)-piperazine]
responders at 15 mg/kg (brain ischemia; 15 & 20 mg/kg): 100%
IC50 (Dopamine D2): 50000 to 100000 nM
IC50 (sigma receptor): 1.9 nM

SMILES: Fc1ccc(C2=CCC(N3CCN(Cc4ccccc4)CC3)CC2)c2ccccc12 (stereo not drawn) [Example 36, 1-[4-(4-Fluoro-1-naphthalenyl)-3-cyclohexen-1-yl]-4-(phenylmethyl)piperazin]
responders at 50 mg/kg (brain ischemia; 50 mg/kg): 100%
IC50 (Dopamine D2): 1000 to 10000 nM

SMILES: C1=C(c2ccc3c(c2)OCO3)CCC(N2CCN(Cc3ccccc3)CC2)C1 (stereo not drawn) [Example 37, 1-[4-(1,3-Benzodioxol-5-yl)-3-cyclohexen-1-yl]-4-(phenylmnethyl) piperazine]
responders at 40 mg/kg (brain ischemia): 92%
IC50 (Dopamine D2): 10000 to 50000 nM
IC50 (sigma receptor): 1.9 nM

SMILES: C1=C(c2nc3ccccc3s2)CCC(N2CCN(Cc3ccccc3)CC2)C1 (stereo not drawn) [Example 38, 1-[4-(2-Benzothiazolyl)-3-cyclohexen-1-yl]-4-(phenylmethyl)piperazine]
responders at 80 mg/kg (brain ischemia; 80 mg/kg): 100%
IC50 (Dopamine D2): 10000 to 50000 nM
IC50 (sigma receptor): 3.9 nM

SMILES: COc1ccc(C2=CCC(N3CCN(Cc4ccccc4)CC3)CC2)cc1 (stereo not drawn) [Example 39, 1-[4-(4-Methoxyphenyl)-3-cyclohexen-1-yl]-4-(phenylmethyl)piperazine]
responders at 20 mg/kg (brain ischemia; 20 & 30 mg/kg): 92%
IC50 (Dopamine D2): 1000 to 10000 nM
IC50 (sigma receptor): 0.9 nM

SMILES: FC(F)(F)c1ccc(C2=CCC(N3CCN(Cc4ccccc4)CC3)CC2)cc1 (stereo not drawn) [Example 40, 1-(Phenylmethyl)-4-[4-[4-(trifluoromethyl)phenyl]-3-cyclohexen-1-yl]piperazine]
responders at 10 mg/kg (brain ischemia): 100%
IC50 (Dopamine D2): 10000 to 50000 nM
IC50 (sigma receptor): 4.5 nM

SMILES: Fc1ccc(CN2CCN(C3CC=C(c4ccc(F)cc4)CC3)CC2)cc1 (stereo not drawn) [Example 41, 1-[4-(4-Fluorophenyl)-3-cyclohexen-1-yl]-4-[(4-fluorophenyl)methyl]piperazine]
responders at 20 mg/kg (brain ischemia; 20 mg/kg): 92%
IC50 (Dopamine D2): 1000 to 10000 nM
IC50 (sigma receptor): 0.6 nM

SMILES: Fc1ccc(CN2CCN(C3CC=C(c4ccc(C(F)(F)F)cc4)CC3)CC2)cc1 (stereo not drawn) [Example 42, 1-[(4-Fluorophenyl)methyl]-4-[4-[4-(trifluoromethyl)phenyl]-3-cyclohexen-1-yl]piperazine]
responders at 20 mg/kg (brain ischemia; 20 mg/kg): 100%
IC50 (Dopamine D2): > 100000 nM
IC50 (sigma receptor): 6.9 nM

SMILES: C1=C(Cc2ccccc2)CCC(N2CCN(Cc3ccccc3)CC2)C1 (stereo not drawn) [Example 43, 1-(Phenylmethyl)-4-[4-(phenylmethyl)-3-cyclohexen-1-yl]piperazine]
responders at 5 mg/kg (brain ischemia; 5 mg/kg): 75%
IC50 (Dopamine D2): 1000 to 10000 nM
IC50 (sigma receptor): 2.1 nM

SMILES: Fc1ccc(C2=CCC(N3CCN(Cc4cccs4)CC3)CC2)cc1 (stereo not drawn) [Example 44, 1-[4-(4-Fluorophenyl)-3-cyclohexen-1-yl]-4-(2-thienylmethyl)piperazine]
responders at 40 mg/kg (brain ischemia): 100%
IC50 (Dopamine D2): 1000 to 10000 nM

SMILES: Fc1ccc(C2=CCC(N3CCN(Cc4ccc5ccccc5n4)CC3)CC2)cc1 (stereo not drawn) [Example 45, 2{{4-[4-(4-Fluorophenyl)-3-cyclohexen-1-yl]-1-piperazinyl]methyl]quinoline]
responders at 20 mg/kg (brain ischemia; 20 mg/kg): 83%
IC50 (Dopamine D2): 1000 to 10000 nM

SMILES: Fc1ccc(C2=CCC(N3CCN(Cc4ccncc4)CC3)CC2)cc1 (stereo not drawn) [Example 46, 1-[4-(4-Fluorophenyl)-3-cyclohexen-1-yl]-4-(4-pyridinylmethyl)piperazine]
responders at 20 mg/kg (brain ischemia; 20 mg/kg): 83%
IC50 (Dopamine D2): 50000 to 100000 nM
IC50 (sigma receptor): 0.5 nM

SMILES: Fc1ccc(C2=CCC(N3CCC(Cc4ccccc4)CC3)CC2)cc1 (stereo not drawn) [Example 47, 1-[4-(4-Fluorophenyl)-3-cyclohexen-1-yl]-4-(phenylmethyl)piperidine]
responders at 40 mg/kg (brain ischemia): 88%
IC50 (Dopamine D2): 1000 to 10000 nM
IC50 (sigma receptor): 4 nM

SMILES: COc1ccc2[nH]cc(C3=CCC(N4CCN(Cc5ccccc5)CC4)CC3)c2c1 (stereo not drawn) [Example 48, 5-Methoxy-3-[4-[4-(phenylmethyl)-1-piperazinyl]-1-cyclohexen-1-yl]-1H-indole]
responders at 40 mg/kg (brain ischemia): 88%
IC50 (Dopamine D2): 1000 to 10000 nM
IC50 (sigma receptor): 6.2 nM

IC50 (Dopamine D2): 1000 to 10000 nM
SMILES: Fc1ccccc1CC1CCN(C2CC=C(c3ccc4c(c3)OCO4)CC2)CC1 (stereo not drawn) [Example 53, 1-[4-(1,3-Benzodioxol-5-yl)-3-cyclohexen-1-yl]-4-[(2-fluorophenyl)methyl]piperidine]

IC50 (Dopamine D2): 1000 to 10000 nM
SMILES: Fc1ccc(F)c(CC2CCN(C3CC=C(c4ccc(F)c(F)c4)CC3)CC2)c1 (stereo not drawn) [Example 55, 1-[4-(3,4-Difluorophenyl)-3-cyclohexen-1-yl]-4-[(2,5-difluorophenyl)methyl]piperidine]

SMILES: C1=C(c2ccc3c(c2)OCCO3)CCC(N2CCN(Cc3ccccc3)CC2)C1 (stereo not drawn) [Example 56, 1-[4-(1,4-Benzodioxan-6-yl)-3-cyclohexen-1-yl]-4-(phenylmethyl)piperazine]
responders at 10 mg/kg (brain ischemia): 100%

SMILES: Clc1ccccc1CN1CCN(C2CC=C(c3ccc4c(c3)OCO4)CC2)CC1 (stereo not drawn) [Example 57, 1-[4-(1,3-Benzodioxol-5-yl)-3-cyclohexen-1-yl]-4-[(2-chlorophenyl)methyl]piperazine]
responders at 10 mg/kg (brain ischemia): 25%
IC50 (Dopamine D2): 1000 to 10000 nM

SMILES: Fc1ccc(F)c(CN2CCN(C3CC=C(c4ccc5c(c4)OCO5)CC3)CC2)c1 (stereo not drawn) [Example 58, 1-[4-(1,3-Benzodioxol-5-yl)-3-cyclohexen-1-yl]-4-[(2,5-difluorophenyl)methyl]piperazine]
responders at 10 mg/kg (brain ischemia): 62%
IC50 (Dopamine D2): 1000 to 10000 nM

SMILES: COc1cccc(CN2CCN(C3CC=C(c4ccc5c(c4)OCO5)CC3)CC2)c1 (stereo not drawn) [Example 59, 1-[4-(1,3-Benzodioxol-5-yl)-3-cyclohexen-1-yl]-4-[(3-methoxyphenyl)methyl]piperazine]
responders at 10 mg/kg (brain ischemia): 75%
IC50 (Dopamine D2): 1000 to 10000 nM

IC50 (Dopamine D2): > 100000 nM
SMILES: Ic1ccc(I)c(CN2CCN(C3CC=C(c4ccc5c(c4)OCO5)CC3)CC2)c1 (stereo not drawn) [Example 61, 1-[4-(1,3-Benzodioxol-5-yl)-3-cyclohexen-1-yl]-4-[(2,5-diiodophenyl)methyl]piperazine]

SMILES: Fc1ccc([C@H]2CC[C@H](N3CCN(Cc4ccc5ccccc5n4)CC3)CC2)cc1 [Example 64, Trans 2-{{4-[4-(4-fluorophenyl)-1-cyclohexyl]-1-piperazinyl}methyl]quinoline]
responders at 5 mg/kg (brain ischemia; 5 & 20 mg/kg): 83%
IC50 (Dopamine D2): 1000 to 10000 nM

— patent US6153611A, “Piperazinyl-cyclohexanes and cyclohexenes” (Bristol-Myers Squibb Company, priority 1993, dated 2000)
